Test system: SK-OV-3 multi-cell spheroids, viability
Experiment: Anticancer human tumor SK-OV-3 cell line growth inhibition [IpAb];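 on viability, T/C: viability read after seven days of drug exposure; percent of DMSO vehicle control luminescence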
Details: for IC50: curve of first compound; for viability, T/C: stronger effect = lower value
Method in brief: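 Combinations with ipatasertib or abemaciclib were tested on tumour spheroids holding HUVEC (25%) and MSC (15%) alongside 60% malignant cells. Top concentration was at or near clinical Cmax (10 microM if undefined), descending in half-log steps.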

[1] = second compound 0.01 µM, first compound 0.00949 µM
[2] = second compound 0.01 µM, first compound 0.03 µM
[3] = second compound 0.01 µM, first compound 0.0949 µM
[4] = second compound 0.01 µM, first compound 0.3 µM
[5] = second compound 0.0316 µM, first compound 0.00949 µM
[6] = second compound 0.0316 µM, first compound 0.03 µM
[7] = second compound 0.0316 µM, first compound 0.0949 µM
[8] = second compound 0.0316 µM, first compound 0.3 µM
[9] = second compound 0.1 µM, first compound 0.00949 µM
[10] = second compound 0.1 µM, first compound 0.03 µM
[11] = second compound 0.1 µM, first compound 0.0949 µM
[12] = second compound 0.1 µM, first compound 0.3 µM
[13] = second compound 0.316 µM, first compound 0.00949 µM
[14] = second compound 0.316 µM, first compound 0.03 µM
[15] = second compound 0.316 µM, first compound 0.0949 µM
[16] = second compound 0.316 µM, first compound 0.3 µM
[17] = second compound 1 µM, first compound 0.00949 µM
[18] = second compound 1 µM, first compound 0.03 µM
[19] = second compound 1 µM, first compound 0.0949 µM
[20] = second compound 1 µM, first compound 0.3 µM

| Compound | IC50 (second compound 0.01 µM) [nM] | IC50 (second compound 0.0316 µM) [nM] | IC50 (second compound 0.1 µM) [nM] | IC50 (second compound 0.316 µM) [nM] | IC50 (second compound 1 µM) [nM] | viability, T/C [1] [%] | viability, T/C [2] [%] | viability, T/C [3] [%] | viability, T/C [4] [%] | viability, T/C [5] [%] | viability, T/C [6] [%] | viability, T/C [7] [%] | viability, T/C [8] [%] | viability, T/C [9] [%] | viability, T/C [10] [%] | viability, T/C [11] [%] | viability, T/C [12] [%] | viability, T/C [13] [%] | viability, T/C [14] [%] | viability, T/C [15] [%] | also measured |
| --- | --- | --- | --- | --- | --- | --- | --- | --- | --- | --- | --- | --- | --- | --- | --- | --- | --- | --- | --- | --- | --- |
| CC(=O)c1c(C)c2cnc(Nc3ccc(N4CCNCC4)cn3)nc2n(C2CCCC2)c1=O + CCN1CCN(Cc2ccc(Nc3ncc(F)c(-c4cc(F)c5nc(C)n(C(C)C)c5c4)n3)nc2)CC1 | 274 | 63.1 | 8.82 | 2.61 | < 0.949 | 66 | 57.5 | 53.3 | 48.9 | 56.5 | 50.9 | 49.1 | 46.7 | 51.8 | 46.9 | 40.5 | 42 | 51 | 45.6 | 45.5 | viability, T/C (second compound 0.01 µM, first compound 0.000949 µM): 79.7%; viability, T/C (second compound 0.01 µM, first compound 0.003 µM): 77.4%; viability, T/C (second compound 0.0316 µM, first compound 0.000949 µM): 68%; viability, T/C (second compound 0.0316 µM, first compound 0.003 µM): 62.5%; viability, T/C (second compound 0.1 µM, first compound 0.000949 µM): 57.7%; viability, T/C (second compound 0.1 µM, first compound 0.003 µM): 52.3%; viability, T/C (second compound 0.316 µM, first compound 0.000949 µM): 51.5%; viability, T/C (second compound 0.316 µM, first compound 0.003 µM): 49%; viability, T/C [16]: 46.8%; viability, T/C (second compound 1 µM, first compound 0.000949 µM): 41.4%; viability, T/C (second compound 1 µM, first compound 0.003 µM): 43.1%; viability, T/C [17]: 42.3%; viability, T/C [18]: 35.9%; viability, T/C [19]: 39.2%; viability, T/C [20]: 42.4% |
| CC(C)(C)c1cnc(CSc2cnc(NC(=O)C3CCNCC3)s2)o1 + CCN1CCN(Cc2ccc(Nc3ncc(F)c(-c4cc(F)c5nc(C)n(C(C)C)c5c4)n3)nc2)CC1 | 196 | 168 | 147 | 129 | < 9.49 | 99.3 | 109 | 104 | 18.4 | 80.2 | 87.8 | 88.3 | 14 | 63 | 70.4 | 80.5 | 15.7 | 60.1 | 62 | 63.4 | viability, T/C (second compound 0.01 µM, first compound 0.949 µM): 0.62%; viability, T/C (second compound 0.01 µM, first compound 3 µM): 1.2%; viability, T/C (second compound 0.0316 µM, first compound 0.949 µM): 1.38%; viability, T/C (second compound 0.0316 µM, first compound 3 µM): 1.32%; viability, T/C (second compound 0.1 µM, first compound 0.949 µM): 0.84%; viability, T/C (second compound 0.1 µM, first compound 3 µM): 0.9%; viability, T/C [16]: 17.3%; viability, T/C (second compound 0.316 µM, first compound 0.949 µM): 0.83%; viability, T/C (second compound 0.316 µM, first compound 3 µM): 1.1%; viability, T/C [17]: 44.7%; viability, T/C [18]: 51.1%; viability, T/C [19]: 50.1%; viability, T/C [20]: 12.7%; viability, T/C (second compound 1 µM, first compound 0.949 µM): 1.41%; viability, T/C (second compound 1 µM, first compound 3 µM): 1.15% |
